ChEMBL document CHEMBL3098064, “Sortase A inhibitory metabolites from the roots of Pulsatilla koreana” (Bioorg Med Chem Lett, 2014)

Assay: Inhibition of Streptococcus mutans OMZ65 recombinant sortase A delta-40 mutant using Dabcyl-QALPETGEE-Edans as substrate after 1 hr by fluorescence spectrophotometry

Row | Compound | IC50
1 | COc1cc([C@H]2Oc3c(OC)cc(CCCO[C@@H]4O[C@H](CO)[C@@H](O)[C@H](O)[C@H]4O)cc3[C@H]2CO)ccc1O | 37.3 µM
2 | COc1cc([C@H]2Oc3c(OC)cc(CCCO)cc3[C@H]2CO[C@@H]2O[C@H](CO)[C@@H](O)[C@H](O)[C@H]2O)ccc1O | 82.8 µM
3 | COc1cc(C[C@@H]2COC(=O)[C@@]2(Cc2ccc(O)c(OC)c2)O[C@@H]2O[C@H](CO)[C@@H](O)[C@H](O)[C@H]2O)ccc1O | 41.2 µM
4 | O=C(/C=C/c1ccc(O)c(O)c1)O[C@@H](Cc1ccc(O)c(O)c1)C(=O)O | 20.1 µM
5 | CO[C@@H](Cc1ccc(O)cc1)C(=O)O | > 100 µM
6 | COc1cc(C[C@@H]2COC(=O)[C@]2(O)Cc2ccc(O)c(OC)c2)ccc1O | > 100 µM
7 | COc1cc([C@H]2Oc3c(OC)cc(CCCO)cc3[C@H]2CO)ccc1O | 35.9 µM
8 | O=C(/C=C/c1ccc(O)c(O)c1)O[C@H](C(=O)O)[C@@H](OC(=O)/C=C/c1ccc(O)c(O)c1)C(=O)O | 60 µM
9 | COc1cc([C@@H]2OC[C@@H]3[C@H]2CO[C@H]3c2ccc(O)c(OC)c2)ccc1O [(+)-PINORESINOL] | 67.7 µM
10 | O=C(O)/C=C/c1ccc(O)c(O)c1 [CAFFEIC ACID] | 20.2 µM
11 | COc1cc(/C=C/C(=O)O)ccc1O [FERULATE] | > 100 µM
12 | COc1cc(C[C@H]2COC(=O)[C@@H]2Cc2ccc(O)c(OC)c2)ccc1O [MATAIRESINOL] | > 100 µM
13 | Para-Hydroxymercuribenzoic acid | 35.1 µM
